Results as given in patent US9540423B2, “Plant defensins and use in the treatment of proliferative diseases” (Balmoral Australia Pty Ltd, priority 2011, dated 2017).
Like-named read-outs stand apart in the source and are kept apart here.

How the values were obtained:
[1] = system: normal human umbilical vein endothelial cells (HUVEC); assay: MTT cell viability assay, HUVEC; type: cell-based; conditions: 48 h
Method: Tumour cells were seeded in quadruplicate into wells of a flat-bottomed 96-well microtitre plate (50 μL) at various densities starting at 2×10^6 cells/mL. Four wells containing complete culture medium alone were included in each assay as a background control. The microtitre plate was incubated overnight at 37° C. under a humidified atmosphere containing 5% CO2/95% air, prior to the addition of complete culture medium (100 μL) to each well and further incubated at 37° C. for 48 h. Optimum cell densities (30-50% confluency) for cell viability assays were determined for each cell line by light microscopy.
Tumour cells were seeded in a 96-well microtitre plate (50 μL/well) at an optimum density determined in the cell optimisation assay as above. Background control wells (n=8) containing the same volume of complete culture medium were included in the assay. The microtitre plate was incubated overnight at 37° C., prior to the addition of proteins at various concentrations and the plate was incubated for a further 48 h. […]
The effect of NoD173 on the viability of a tumour cell line and a normal human cell isolate was determined using a 3-(4,5-dimethyl-2-thiazolyl)-2,5-diphenyl-2H-tetrazolium bromide (MTT) in vitro cell culture viability assay. […]

[2] = system: Fusarium oxysporum f. sp. vasinfectum (Fov); conditions: cited from earlier work
Leptosphaeria maculans = conditions: cited from earlier work
Verticillium dahliae = conditions: cited from earlier work
Thielaviopsis basicola = conditions: cited from earlier work
Aspergillus nidulans = conditions: cited from earlier work
[3] = subcutaneous, intraperitoneal or intratumoural routes; previous studies; cited from earlier work
Phoma betae = conditions: cited from earlier work

Substance | IC50 [1] [µM] | Growth inhibition of Fov ([2]; 1 μM) [%] | Growth inhibition of Fov ([2]; 5 μM) | Growth inhibition of L. maculans (Leptosphaeria maculans; 1 μM) [%] | Growth inhibition of L. maculans (Leptosphaeria maculans; 5 μM) | Growth inhibition of V. dahliae (Verticillium dahliae; 1 μM) | Growth inhibition of V. dahliae (Verticillium dahliae; 5 μM) | Growth inhibition of T. basicola (Thielaviopsis basicola; 1 μM) | Growth inhibition of T. basicola (Thielaviopsis basicola; 5 μM) | Growth inhibition of A. nidulans (Aspergillus nidulans; 1 μM) | Growth inhibition of A. nidulans (Aspergillus nidulans; 5 μM) | Dose at which toxicity was shown [3] | Concentration inhibiting growth of Phoma betae (Phoma betae) [µg/mL]
NaD1: plant defensin isolated from floral tissue of Nicotiana alata; model class II defensin (RECKTESNTFPGICITKPPCRKACISEKFTDGHCSKILRRCLCTKPC; UniProt Q8GTM0 26-72, looked up) | 15 | 50 | more than 80% | 50 | more than 80% | approximately 65% | more than 80% | approximately 65% | more than 80% | approximately 65% | more than 80% | above 1 mg/kg body weight | 
Rs-AFP2: antifungal protein (plant defensin) isolated from radish seeds, 51 amino acids (QKLCQRPSGTWSGVCGNNNACKNQCIRLEKARHGSCNYVFPAHKCICYFPC; UniProt P30230 30-80, looked up) |  |  |  |  |  |  |  |  |  |  |  |  | 1
